Laboratory results published in patent EP0205308B1, “Scytophycins” (Moore, Richard Elliott, priority 1985, dated 1986).
Marks after values point to notes of the source that are not given here.

Legend:
Assay in all cases: In vitro agar-diffusion test
Assay type in all cases: cell-based
[1] = system: Saccharomyces pastorianus X52; design: key: T = trace
Method: (§1) The activity of scytophycin compounds against pathogenic fungi in standard in vitro agar-diffusion tests, using ¼"(6mm) discs holding ~30 µL of test solution, is illustrated in Tables 6-12.

Candida albicans X657 = system: Candida albicans X657
Method: as §1

Neurospora crassa X846 = system: Neurospora crassa X846
Method: as §1

Pythium ultimum X751 = system: Pythium ultimum X751
Method: as §1

Rhizoctonia solani X767 = system: Rhizoctonia solani X767
Method: as §1

[2] = system: Sclerotina homoeocarpa X768
Method: as §1

| Substance | Size of Zone of Inhibition (mm) ([1]; Table 9, 1 mg/mL) | Size of Zone of Inhibition (mm) (Candida albicans X657; Table 9, 1 mg/mL) | Size of Zone of Inhibition (mm) (Neurospora crassa X846; Table 9, 1 mg/mL) | Size of Zone of Inhibition (mm) (Pythium ultimum X751; Table 12, 0.5 mg/mL) | Size of Zone of Inhibition (mm) (Rhizoctonia solani X767; Table 12, 0.5 mg/mL) | Size of Zone of Inhibition (mm) ([2]; Table 12, 0.5 mg/mL) | Size of Zone of Inhibition (mm) ([1]; Table 8, 0.33 mg/mL) | Size of Zone of Inhibition (mm) ([1]; Table 8, 1 mg/mL) | Size of Zone of Inhibition (mm) (Candida albicans X657; Table 8, 0.33 mg/mL) | Size of Zone of Inhibition (mm) (Candida albicans X657; Table 8, 1 mg/mL) | Size of Zone of Inhibition (mm) (Neurospora crassa X846; Table 8, 0.33 mg/mL) | Size of Zone of Inhibition (mm) (Neurospora crassa X846; Table 8, 1 mg/mL) | Size of Zone of Inhibition (mm) (Pythium ultimum X751; Table 11, 0.33 mg/mL) | Size of Zone of Inhibition (mm) (Pythium ultimum X751; Table 11, 1.0 mg/mL) | Size of Zone of Inhibition (mm) (Rhizoctonia solani X767; Table 11, 0.33 mg/mL) | Size of Zone of Inhibition (mm) (Rhizoctonia solani X767; Table 11, 1.0 mg/mL) | Size of Zone of Inhibition (mm) ([2]; Table 11, 0.33 mg/mL) | Size of Zone of Inhibition (mm) ([2]; Table 11, 1.0 mg/mL) | Size of Zone of Inhibition (mm) (Rhizoctonia solani X767; Table 11, 0.33 mg/mL, second value of the cell, after the zone marked overgrowth) | Size of Zone of Inhibition (mm) (Rhizoctonia solani X767; Table 11, 1.0 mg/mL, second value of the cell, after the zone marked overgrowth) |
| --- | --- | --- | --- | --- | --- | --- | --- | --- | --- | --- | --- | --- | --- | --- | --- | --- | --- | --- | --- | --- |
| Scytophycin C | 17 | 22 | 30 | 12^a mm | 30 | 32 |  |  |  |  |  |  |  |  |  |  |  |  |  |  |
| Scytophycin D |  |  |  |  |  |  | T^a | 12 | 14 | 19 | 20 | 25 | 24 | 27 | 22 | 30 | 20 | 26 |  |  |
| Scytophycin E |  |  |  |  |  |  | 18 mm | 23 | 22 | 21 | 26 | 36 | 30 | 40 | 33 | 46 | 33 | 35 | 15 | 25 |
